Assay results published in patent US20130096119A1, “Isoquinolin-3-Ylurea Derivatives” (priority 2010, published 2013).
In brackets after ≈: the same amount, converted by molar mass.

Test system: S. pneumoniae ATCC 49619
Test: Minimal inhibitory concentration (MIC) by microdilution method (CLSI M7-A7)
Format: cell-based, Streptococcus pneumoniae
Details: for MIC: Streptococcus pneumoniae, ATCC49619, cation-adjusted Mueller-Hinton Broth supplemented with 3% (v/v) lysed horse blood
Procedure: Minimal inhibitory concentrations (MICs; mg/l) were determined in cation-adjusted Mueller-Hinton Broth (supplemented with 3% (v/v) lysed horse blood for testing Streptococcus pneumoniae) by a microdilution method following the description given in “Methods for Dilution Antimicrobial Susceptibility Tests for Bacteria that Grow Aerobically”, Approved standard, 7th ed., Clinical and Laboratory Standards Institute (CLSI) Document M7-A7, Wayne, Pa., USA, 2006.

Compound | MIC | MIC for S. pneumoniae ATCC 49619 (cation-adjusted Mueller-Hinton Broth supplemented with 3% (v/v) lysed horse blood)
CCNC(=O)Nc1cc2cccc(NC(=O)c3ccc[nH]3)c2cn1.Cl [Example 182, 1H-pyrrole-2-carboxylic acid [3-(3-ethyl-ureido)-isoquinolin-8-yl]-amide hydrochloride] | 2 µg/mL | 
CCNC(=O)Nc1cc2c(-c3ccc4nccn4c3)ccc(C)c2cn1 [Example 7, 1-ethyl-3-(5-imidazo[1,2-a]pyridin-6-yl-8-methyl-isoquinolin-3-yl)-urea] | 4 µg/mL (≈ 11.6 µM) | 
CCNC(=O)Nc1cc2c(-c3ccncc3)ccc(Oc3cccnc3)c2cn1 [Example 222, 1-ethyl-3-[5-pyridin-4-yl-8-(pyridin-3-yloxy)-isoquinolin-3-yl]-urea] | 1 µg/mL (≈ 2.59 µM) | 
CCNC(=O)Nc1cc2cc(NCC(C)C)cc(C)c2cn1.Cl [Example 136, 1-ethyl-3-(6-isobutylamino-8-methyl-isoquinolin-3-yl)-urea hydrochloride] | 16 µg/mL | 
CCNC(=O)Nc1cc2c(CNC)ccc(Nc3cccc(C(=O)O)c3)c2cn1 [Example 272, 3-{[3-(3-ethyl-ureido)-5-[(methylamino)methyl]-isoquinolin-8-yl]amino}-benzoic acid] | 8 µg/mL (≈ 20.3 µM) | 
CCNC(=O)Nc1cc2cc(NCc3ccc(S(=O)(=O)NC)cc3)cc(C)c2cn1 [Example 189, 4-{[3-(3-ethyl-ureido)-8-methyl-isoquinolin-6-ylamino]-methyl}-N-methyl-benzenesulfonamide] | 8 µg/mL (≈ 18.7 µM) | 
CCNC(=O)Nc1cc2cc(-c3ccc(C(N)=O)cc3)cc(C)c2cn1 [Example 30, 4-[3-(3-ethyl-ureido)-8-methyl-isoquinolin-6-yl]-benzamide] | 1 µg/mL (≈ 2.87 µM) | 
CCNC(=O)Nc1cc2cc(NC(=O)c3cncs3)cc(C)c2cn1 [Example 62, thiazole-5-carboxylic acid [3-(3-ethyl-ureido)-8-methyl-isoquinolin-6-yl]-amide] | 0.25 µg/mL (≈ 0.703 µM) | 
CCNC(=O)Nc1cc2c(-c3ccncc3)ccc(Nc3cccnc3)c2cn1 [Example 227, 1-ethyl-3-[5-pyridin-4-yl-8-(pyridin-3-ylamino)-isoquinolin-3-yl]-urea] | 0.125 µg/mL (≈ 0.325 µM) | 
CCNC(=O)Nc1cc2c(F)ccc(Cc3ccccc3)c2cn1 [Example 46, 1-(8-benzyl-5-fluoro-isoquinolin-3-yl)-3-ethyl-urea] | 1 µg/mL (≈ 3.09 µM) | 
CCNC(=O)Nc1cc2c(CCC(N)=O)ccc(C)c2cn1 [Example 59, 3-[3-(3-ethyl-ureido)-8-methyl-isoquinolin-5-yl]-propionamide] | 4 µg/mL (≈ 13.3 µM) | 
CCNC(=O)Nc1cc2cc(NC(=O)COC)cc(C)c2cn1 [Example 195, N-[3-(3-ethyl-ureido)-8-methyl-isoquinolin-6-yl]-2-methoxy-acetamide] | 4 µg/mL (≈ 12.6 µM) | 
CCNC(=O)Nc1cc2cccc(Nc3ccc(C(=O)OC)cn3)c2cn1.Cl [Example 165, 6-[3-(3-ethyl-ureido)-isoquinolin-8-ylamino]-nicotinic acid methyl ester hydrochloride] | 4 µg/mL | 
CCNC(=O)Nc1cc2c(-c3ccc(NC(=O)OC)cc3)ccc(C)c2cn1 [Example 65, {4-[3-(3-ethyl-ureido)-8-methyl-isoquinolin-5-yl]-phenyl}-carbamic acid methyl ester] | 2 µg/mL (≈ 5.28 µM) | 
CCNC(=O)Nc1cc2cc(-c3cncc(C)c3)cc(Nc3cccnc3)c2cn1 [Example 237, 1-ethyl-3-[6-(5-methyl-pyridin-3-yl)-8-(pyridin-3-ylamino)-isoquinolin-3-yl]-urea] | 0.25 µg/mL (≈ 0.627 µM) | 
CCNC(=O)Nc1cc2cccc(COc3ccncc3C(=O)OC)c2cn1.Cl [Example 212, 4-[3-(3-ethyl-ureido)-isoquinolin-8-ylmethoxy]-nicotinic acid methyl ester hydrochloride] | 8 µg/mL | 
CCNC(=O)Nc1cc2cccc(Nc3ccccn3)c2cn1 [Example 146, 1-ethyl-3-[8-(pyridin-2-ylamino)-isoquinolin-3-yl]-urea] | 4 µg/mL (≈ 13 µM) | 
CCNC(=O)Nc1cc2c(F)c(-c3ccc(S(N)(=O)=O)cc3)cc(C)c2cn1 [Example 144, 4-[3-(3-ethyl-ureido)-5-fluoro-8-methyl-isoquinolin-6-yl]-benzenesulfonamide] | 0.5 µg/mL (≈ 1.24 µM) | 
CCNC(=O)Nc1cc2cccc(Cn3cc(CO)cn3)c2cn1 [Example 292, 1-ethyl-3-[8-(4-hydroxymethyl-pyrazol-1-ylmethyl)-isoquinolin-3-yl]-urea] | 8 µg/mL (≈ 24.6 µM) | 
CCNC(=O)Nc1cc2cccc(Nc3cncc(F)c3)c2cn1.Cl [Example 159, 1-ethyl-3-[8-(5-fluoro-pyridin-3-ylamino)-isoquinolin-3-yl]-urea hydrochloride] | 2 µg/mL | 
CCNC(=O)Nc1cc2cccc(Nc3ccc(OC)c(C(=O)NC)c3)c2cn1 [Example 243, 5-[3-(3-ethyl-ureido)-isoquinolin-8-ylamino]-2-methoxy-N-methyl-benzamide] | 1 µg/mL (≈ 2.54 µM) | 
CCNC(=O)Nc1cc2cccc(Nc3ccc(OC)cn3)c2cn1 [Example 181, 1-ethyl-3-[8-(5-methoxy-pyridin-2-ylamino)-isoquinolin-3-yl]-urea] | 8 µg/mL (≈ 23.7 µM) | 

Compound | MIC | MIC for S. pneumoniae ATCC 49619 (cation-adjusted Mueller-Hinton Broth supplemented with 3% (v/v) lysed horse blood)
CCNC(=O)Nc1cc2cc(-c3cccc4cnccc34)cc(C)c2cn1 [Example 104, 1-ethyl-3-(8′-methyl-[5,6′]biisoquinolinyl-3′-yl)-urea] | 8 µg/mL (≈ 22.4 µM) | 
1-[8-(2,4-dimethyl-imidazol-1-ylmethyl)-isoquinolin-3-yl]-3-ethyl-urea and 1-[8-(2,5-dimethyl-imidazol-1-ylmethyl)-isoquinolin-3-yl]-3-ethyl-urea [Example 296] |  | 8 µg/mL
CCNC(=O)Nc1cc2cc(NCc3ccc(C(=O)O)cc3)cc(C)c2cn1 [Example 127, 4-{[3-(3-ethyl-ureido)-8-methyl-isoquinolin-6-ylamino]-methyl}-benzoic acid] | 16 µg/mL (≈ 42.3 µM) | 
CCNC(=O)Nc1cc2cccc(Cn3ccnn3)c2cn1 [Example 298, 1-ethyl-3-(8-[1,2,3]triazol-1-ylmethyl-isoquinolin-3-yl)-urea] | 4 µg/mL (≈ 13.5 µM) | 
CCNC(=O)Nc1cc2cccc(Nc3ccc(CC(N)=O)cc3)c2cn1.Cl [Example 253, 2-{4-[3-(3-ethyl-ureido)-isoquinolin-8-ylamino]-phenyl}-acetamide hydrochloride] | 4 µg/mL | 
CCNC(=O)Nc1cc2c(F)ccc(NCc3ccccc3)c2cn1 [Example 56, 1-(8-benzylamino-5-fluoro-isoquinolin-3-yl)-3-ethyl-urea] | 8 µg/mL (≈ 23.6 µM) | 
CCNC(=O)Nc1cc2cc(NC(=O)c3ccc(S(C)(=O)=O)cc3)cc(C)c2cn1 [Example 117, N-[3-(3-ethyl-ureido)-8-methyl-isoquinolin-6-yl]-4-methanesulfonyl-benzamide] | 0.25 µg/mL (≈ 0.586 µM) | 
CCNC(=O)Nc1cc2c(-c3ccnc(C)c3)ccc(Nc3cccc(C(=O)NC)c3)c2cn1 [Example 247, 3-[3-(3-ethyl-ureido)-5-(2-methyl-pyridin-4-yl)-isoquinolin-8-ylamino]-N-methyl-benzamide] | 0.25 µg/mL (≈ 0.55 µM) | 
CCNC(=O)Nc1cc2cc(-c3ccccc3NC(C)=O)cc(C)c2cn1 [Example 86, N-{2-[3-(3-ethyl-ureido)-8-methyl-isoquinolin-6-yl]-phenyl}-acetamide] | 16 µg/mL (≈ 44.1 µM) | 
CCNC(=O)Nc1cc2c(-c3ccnc(C)c3)ccc(Nc3cccc(C(=O)O)c3)c2cn1 [Example 246, 3-[3-(3-ethyl-ureido)-5-(2-methyl-pyridin-4-yl)-isoquinolin-8-ylamino]-benzoic acid] | 0.5 µg/mL (≈ 1.13 µM) | 
CCNC(=O)Nc1cc2cccc(Nc3ccc(C)cn3)c2cn1.Cl [Example 163, 1-ethyl-3-[8-(5-methyl-pyridin-2-ylamino)-isoquinolin-3-yl]-urea hydrochloride] | 2 µg/mL | 
CCNC(=O)Nc1cc2cc(-c3cncc(S(C)(=O)=O)c3)cc(C)c2cn1 [Example 103, 1-ethyl-3-[6-(5-methanesulfonyl-pyridin-3-yl)-8-methyl-isoquinolin-3-yl]-urea] | 0.5 µg/mL (≈ 1.3 µM) | 
CCNC(=O)Nc1cc2cc(NC(=O)c3ccccc3)cc(C)c2cn1 [Example 106, N-[3-(3-ethyl-ureido)-8-methyl-isoquinolin-6-yl]-benzamide] | 0.125 µg/mL (≈ 0.359 µM) | 
CCNC(=O)Nc1cc2cc(-c3cncc4ccccc34)cc(C)c2cn1 [Example 91, 1-ethyl-3-(8′-methyl-[4,6′]biisoquinolinyl-3′-yl)-urea] | 2 µg/mL (≈ 5.61 µM) | 
CCNC(=O)Nc1cc2cccc(Nc3ccc(C(=O)N(C)C)cc3)c2cn1.Cl [Example 203, 4-[3-(3-ethyl-ureido)-isoquinolin-8-ylamino]-N,N-dimethyl-benzamide hydrochloride] | 2 µg/mL | 
CCNC(=O)Nc1cc2cc(-c3cccnc3F)cc(C)c2cn1 [Example 100, 1-ethyl-3-[6-(2-fluoro-pyridin-3-yl)-8-methyl-isoquinolin-3-yl]-urea] | 2 µg/mL (≈ 6.17 µM) | 
CCNC(=O)Nc1cc2c(-c3ccnnc3)ccc(C)c2cn1 [Example 279, 1-ethyl-3-(8-methyl-5-pyridazin-4-yl-isoquinolin-3-yl)-urea] | 1 µg/mL (≈ 3.25 µM) | 
CCNC(=O)Nc1cc2cccc(Cn3ccnc3C(=O)O)c2cn1 [Example 294, 1-[3-(3-ethyl-ureido)-isoquinolin-8-ylmethyl]-1H-imidazole-2-carboxylic acid] | 4 µg/mL (≈ 11.8 µM) | 
CCNC(=O)Nc1cc2c(-c3ccnc(Cl)c3)ccc(C)c2cn1 [Example 27, 1-[5-(2-chloro-pyridin-4-yl)-8-methyl-isoquinolin-3-yl]-3-ethyl-urea] | 2 µg/mL (≈ 5.87 µM) | 
CCNC(=O)Nc1cc2cc(-c3cccc(C#N)c3)cc(C)c2cn1 [Example 107, 1-[6-(3-cyano-phenyl)-8-methyl-isoquinolin-3-yl]-3-ethyl-urea] | 1 µg/mL (≈ 3.03 µM) | 
CCCNc1cc(C)c2cnc(NC(=O)NCC)cc2c1 [Example 115, 1-ethyl-3-(8-methyl-6-propylamino-isoquinolin-3-yl)-urea] | 4 µg/mL (≈ 14 µM) | 
CCNC(=O)Nc1cc2cc(-c3ccccc3O)cc(C)c2cn1 [Example 109, 1-ethyl-3-[6-(2-hydroxy-phenyl)-8-methyl-isoquinolin-3-yl]-urea] | 2 µg/mL (≈ 6.22 µM) | 
